Here are results for 16 compounds from US20230279025A1, “KRAS G12D INHIBITORS” (Mirati Therapeutics, Inc., priority 2020, published 2023).

Where two headings read alike, the source gives them in different places.

Data set [1] concerns the target T1, KRas G12D (Homo sapiens (Human), UniProt P01116, G12D). The data set is described as follows: KRas G12D Binding Assay (TR-FRET displacement of Cy5 labelled tracer). As to conditions: GDP-loaded KRAS G12D (amino acids 1:169), 60 minute incubation at 22° C. The method, then: After a 60 minute incubation at 22° C., the reaction was measured using a PerkinElmer EnVision multimode plate reader via TR-FRET dual wavelength detection, and the percent of control (POC) calculated using a ratiometric emission factor. […] The POC values were fit to a 4-parameter logistic curve and the IC50 value was determined as the concentration where the curve crosses 50 POC.
ND stands for “not determined.”
Target sequence in this assay (P01116 other isoform, or with tags, fused parts or gaps G12D): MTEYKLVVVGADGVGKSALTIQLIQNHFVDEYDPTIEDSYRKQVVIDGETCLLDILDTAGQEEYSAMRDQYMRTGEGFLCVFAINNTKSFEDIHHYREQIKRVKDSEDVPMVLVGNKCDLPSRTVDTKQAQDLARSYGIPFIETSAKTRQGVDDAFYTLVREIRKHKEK

The target in data set [2] is T1, KRas G12D. In words: KRas G12D Surface Plasmon Resonance (SPR) Binding Assay. The settings on record: Biacore T200, immobilized biotinylated KRAS protein, 1:1 binding model. In general terms: Surface plasmon resonance follows binding to a sensor surface in real time, without labels.
Target sequence in this assay (P01116-2 other isoform, or with tags, fused parts or gaps G12D): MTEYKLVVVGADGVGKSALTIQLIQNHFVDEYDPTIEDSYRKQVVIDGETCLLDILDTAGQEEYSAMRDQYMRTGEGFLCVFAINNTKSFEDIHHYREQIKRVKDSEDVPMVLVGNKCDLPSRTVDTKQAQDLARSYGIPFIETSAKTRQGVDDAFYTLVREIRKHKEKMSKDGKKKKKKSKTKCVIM
The subject of data set [3] is KRas G12D-mediated phosphorylation of ERK in AGS cells (ATCC CRL-1739) expressing G12D. The data set is described as follows: Inhibition of KRas G12D-mediated Phosphorylation of ERK in AGS cells. Format: cell-based. As to conditions: Homo sapiens. How it is done: Cells were plated in tissue culture treated 96 well plates at a density of 40,000 cells/well and allowed to attach for 12-14 hours. Diluted compounds were then added in a final concentration of 0.5% DMSO. After 3 hours, the medium was removed, 150 μL of 4.0% formaldehyde was added and the plates incubated at room temperature for 20 minutes. The plates were washed with PBS, and permeabilized with 150 μL of ice cold 100% methanol for 10 minutes. Non-specific antibody binding to the plates was blocked using […] Licor blocking buffer (Li-Cor Biotechnology, Lincoln Nebr.) for 1 hour at room temperature.
The amount of phospho-ERK was determined using an antibody specific for the phosphorylated form of ERK and compared to the amount of GAPDH. Primary antibodies used for the detection were added as follows: Phospho-ERK(Cell Signaling cs-9101) diluted 1:500 and GAPDH(Millipore MAB374) diluted 1:5000 in Licor block+0.05% Tween 20. The plates were incubated for 2 hours at room temperature. The plates were washed with PBS+0.05% Tween 20.
Secondary antibodies used to visualize primary antibodies were added as follows: Anti-rabbit-680 diluted 1:1000 and Anti-mouse-800 diluted 1:1000 both in Licor block+0.05% TweeN20, and were incubated for 1 hour at room temperature. The plates were washed with PBS +0.05% Tween 20. A 100 μL aliquot of PBS was added to each well and the plates were read on a Li-Cor Odyssey CLX plate reader.

Data set [4] is described as follows: Whole Blood Stability (WBS), human whole blood. Format: in vitro ADME.
Protocol: Compounds (2 μM) were incubated at 37° C. for 0, 10, 30, 60, and 120 min in a 1:1 (v/v) blood and PBS, pH 7.4. Diluted blood was preincubated for 15 min at 37° C. before the reactions were initiated with the dosing of the compound. At the end of incubation, the same volume of water was mixed with the spiked blood samples, and then stop solution (200 ng/mL tolbutamide and 200 ng/mL labetalol in MeOH) was added to precipitate protein. Mixed thoroughly. Samples were centrifuged, and supernatants were analyzed by LC-MS/MS.
Setting [5] is: phospho-ERK(Thr202/Tyr204) normalized to GAPDH, AGS cells, 3 hours, read-out: IC50.

In the case of `Oc1cc(-c2ncc3c(N4C[C@H]5CC[C@@H](C4)N5)nc(OCCCN4C[C@@H]5C[C@H]4CO5)nc3c2F)c2ccccc2c1` [Example 24, 4-(2-(3-((1S,4S)-2-oxa-5-azabicyclo[2.2.1]heptan-5-yl)propoxy)-4-((1R,5S)-3,8-diazabicyclo[3.2.1]octan-3-yl)-8-fluoropyrido[4,3-d]pyrimidin-7-yl)naphthalen-2-ol], the IC50 is 7.9 nM on KRas G12D [1] and 2890 nM in data set [3] (setting [5]). In addition, the Kd at KRas G12D [2] turned out to be 5 nM.
Turning to `Fc1c(-c2cccc3cccc(Cl)c23)ncc2c(N3C[C@H]4CC[C@@H](C3)N4)nc(OCCCN3C[C@@H]4C[C@H]3CO4)nc12` [Example 103, (1S,4S)-5-(3-((4-((1R,5S)-3,8-diazabicyclo[3.2.1]octan-3-yl)-7-(8-chloronaphthalen-1-yl)-8-fluoropyrido[4,3-d]pyrimidin-2-yl)oxy)propyl)-2-oxa-5-azabicyclo[2.2.1]heptane], the IC50 in data set [3] (setting [5]) was > 16700 nM.
In the case of `CN1CC[C@H](Oc2cccc(S(=O)(=O)F)c2)[C@H]1COc1nc(N2C[C@H]3CC[C@@H](C2)N3)c2cnc(-c3cccc4cccc(Cl)c34)c(F)c2n1` [Example 210, 3-(((2R,3S)-2-(((4-((1R,5S)-3,8-diazabicyclo[3.2.1]octan-3-yl)-7-(8-chloronaphthalen-1-yl)-8-fluoropyrido[4,3-d]pyrimidin-2-yl)oxy)methyl)-1-methylpyrrolidin-3-yl)oxy)benzenesulfonyl fluoride tris(2,2,2-trifluoroacetate)], the IC50 at KRas G12D [1] was 5460 nM; in data set [3] (AGS, 3 h), > 16700 nM.
Take `CC(C)N1CCC[C@H]1COc1nc(N2C[C@H]3C[C@@H](O)[C@@H](C2)N3)c2cnc(-c3cccc4cccc(Cl)c34)c(F)c2n1` [Example 153, (1R,5R,6R)-3-(7-(8-chloronaphthalen-1-yl)-8-fluoro-2-(((S)-1-isopropylpyrrolidin-2-yl)methoxy)pyrido[4,3-d]pyrimidin-4-yl)-3,8-diazabicyclo[3.2.1]octan-6-ol]: the IC50 worked out at 50.8 nM on KRas G12D [1] and 2370 nM in data set [3] (setting [5]). This compound showed a Kd on KRas G12D [2] of 70.5 nM.
Regarding `CN1C[C@H](Oc2ccc(S(=O)(=O)F)cc2)C[C@H]1COc1nc(N2C[C@H]3CC[C@@H](C2)N3)c2cnc(-c3cccc4cccc(Cl)c34)c(F)c2n1` [Example 209, 4-(((3R,5S)-5-(((4-((1R,5S)-3,8-diazabicyclo[3.2.1]octan-3-yl)-7-(8-chloronaphthalen-1-yl)-8-fluoropyrido[4,3-d]pyrimidin-2-yl)oxy)methyl)-1-methylpyrrolidin-3-yl)oxy)benzenesulfonyl fluoride tris(2,2,2-trifluoroacetate)], the IC50 at KRas G12D [1] was 2750 nM; in data set [3] (AGS, 3 h) it was > 16700 nM.
Take `CCc1cccc2cccc(-c3ncc4c(N5CC6CCC(C5)N6)nc(OC[C@]56CCCN5[C@@H](COC(=O)N5CCOCC5)CC6)nc4c3F)c12` (single isomer, unassigned) [Example 431]: the figures for the IC50 (at KRas G12D [1]; in data set [3] (setting [5])) were 1.4 nM and 74.3 nM, respectively.
Turning to `O[C@@H]1C[C@@H]2CN(c3nc(OCC45CCCN4CCC5)nc4c(F)c(-c5cccc6cccc(Cl)c56)ncc34)C[C@H]1N2` [Example 49, (1R,5R,6R)-3-(7-(8-chloronaphthalen-1-yl)-8-fluoro-2-((tetrahydro-1H-pyrrolizin-7a(5H)-yl)methoxy)pyrido[4,3-d]pyrimidin-4-yl)-3,8-diazabicyclo[3.2.1]octan-6-ol], the IC50 stood at 5.9 nM on KRas G12D [1] and 2120 nM in data set [3] (setting [5]). The affinity at KRas G12D [2], expressed as Kd, was 0.4 nM.
Regarding `Oc1cc(-c2ncc3c(N4C[C@H]5CC[C@@H](C4)N5)nc(OCCN4C[C@@H]5C[C@H]4CO5)nc3c2F)c2ccccc2c1` [Example 26, 4-(2-(2-((1S,4S)-2-oxa-5-azabicyclo[2.2.1]heptan-5-yl)ethoxy)-4-((1R,5S)-3,8-diazabicyclo[3.2.1]octan-3-yl)-8-fluoropyrido[4,3-d]pyrimidin-7-yl)naphthalen-2-ol], the IC50 on KRas G12D [1] is 42.1 nM; in data set [3] (setting [5]) it was 4280 nM. Further, binding on KRas G12D [2] was characterised by a dissociation constant (Kd) of 27.9 nM.
For the compound `CN1C[C@H](Oc2cccc(S(=O)(=O)F)c2)C[C@H]1COc1nc(N2C[C@H]3CC[C@@H](C2)N3)c2cnc(-c3cccc4cccc(Cl)c34)c(F)c2n1` [Example 208, 3-(((3R,5S)-5-(((4-((1R,5S)-3,8-diazabicyclo[3.2.1]octan-3-yl)-7-(8-chloronaphthalen-1-yl)-8-fluoropyrido[4,3-d]pyrimidin-2-yl)oxy)methyl)-1-methylpyrrolidin-3-yl)oxy)benzenesulfonyl fluoride tris 2,2,2-trifluoroacetate], the IC50 on KRas G12D [1] was 1840 nM; in data set [3] (AGS, 3 h), > 16700 nM.
Regarding `CCc1cccc2cccc(-c3ncc4c(N5CC6CCC(C5)N6)nc(OC[C@]56CCCN5[C@@H](COC(=O)NC)CC6)nc4c3F)c12` (single isomer, unassigned) [Example 432], the IC50 at KRas G12D [1] is 1.9 nM; in data set [3] (setting [5]) it was 106 nM.
Regarding `CCc1cccc2cc(O)cc(-c3ncc4c(N5C[C@H]6CC[C@@H](C5)N6)nc(OC[C@]56CCCN5C[C@@H](F)C6)nc4c3F)c12` [Example 468, 4-(4-((1R,5S)-3,8-diazabicyclo[3.2.1]octan-3-yl)-8-fluoro-2-(((2S,7aR)-2-fluorohexahydro-1H-pyrrolizin-7a-yl)methoxy)pyrido[4,3-d]pyrimidin-7-yl)-5-ethylnaphthalen-2-ol], the figures for the IC50 (at KRas G12D [1]; in data set [3] (setting [5])) were < 0.002 nM and 28.8 nM, respectively.
On to `C#Cc1c(F)ccc2cc(O)cc(-c3ncc4c(N5C[C@H]6CC[C@@H](C5)N6)nc(OC[C@]56CCCN5C[C@@H](F)C6)nc4c3F)c12` [Example 482, 4-(4-((1R,5S)-3,8-diazabicyclo[3.2.1]octan-3-yl)-8-fluoro-2-(((2S,7aR)-2-fluorohexahydro-1H-pyrrolizin-7a-yl)methoxy)pyrido[4,3-d]pyrimidin-7-yl)-5-ethynyl-6-fluoronaphthalen-2-ol], for which the IC50 in data set [3] (setting [5]) came to 3.4 nM.
For the compound `C#Cc1c(F)ccc2cc(O)cc(-c3ncc4c(N5C[C@H]6CC[C@@H](C5)N6)nc(OC[C@@]56CCCCN5C[C@H](F)C6)nc4c3F)c12` [Example 469, 4-(4-((1R,5S)-3,8-diazabicyclo[3.2.1]octan-3-yl)-8-fluoro-2-(((2R,8aS)-2-fluorooctahydroindolizin-8a-yl)methoxy)pyrido[4,3-d]pyrimidin-7-yl)-5-ethynyl-6-fluoronaphthalen-2-ol], the IC50 at KRas G12D [1] is < 0.002 nM; in data set [3] (setting [5]) it was 31.6 nM.
Turning to `N#CC[C@@H]1C[C@@H]2CN(c3nc(OC[C@@]45CCCN4C[C@H](F)C5)nc4c(F)c(-c5cc(O)cc6ccccc56)ncc34)C[C@H]1N2` (racemic) [Example 339, 2-((1R,5S,6S)-3-(8-fluoro-2-((2-fluorotetrahydro-1H-pyrrolizin-7a(5H)-yl)methoxy)-7-(3-hydroxynaphthalen-1-yl)pyrido[4,3-d]pyrimidin-4-yl)-3,8-diazabicyclo[3.2.1]octan-6-yl)acetonitrile (racemic, trans)], the IC50 was found to be 21 nM on KRas G12D [1] and 8660 nM in data set [3] (setting [5]). The compound further showed a Kd on KRas G12D [2] of 21.6 nM.
As for `Cc1cc2[nH]ncc2c(-c2ncc3c(N4C[C@H]5CC[C@@H](C4)N5)nc(OCC45CCCN4CC(F)C5)nc3c2F)c1Cl` (mixture of isomers) [Example 376, 4-((1R,5S)-3,8-diazabicyclo[3.2.1]octan-3-yl)-7-(5-chloro-6-methyl-1H-indazol-4-yl)-8-fluoro-2-((2-fluorotetrahydro-1H-pyrrolizin-7a(5H)-yl)methoxy)pyrido[4,3-d]pyrimidine], in data set [3] (setting [5]), the IC50 stood at 582 nM.
On to `C#Cc1c(F)ccc2cc(O)cc(-c3ncc4c(N5C[C@H]6CC[C@@H](C5)N6C(=O)OCOC(=O)CCCCCCCCC)nc(OC[C@@]56CCCN5C[C@H](F)C6)nc4c3F)c12` [Example 471, (Decanoyloxy)methyl (1R,5S)-3-(7-(8-ethynyl-7-fluoro-3-hydroxynaphthalen-1-yl)-8-fluoro-2-(((2R,7aS)-2-fluorotetrahydro-1H-pyrrolizin-7a(5H)-yl)methoxy)pyrido[4,3-d]pyrimidin-4-yl)-3,8-diazabicyclo[3.2.1]octane-8-carboxylate], for which the “% remaining in human whole blood” value in data set [4] (time point 0 min) was 100%; in data set [4] (time point 10 min), 105%; in data set [4] (time point 30 min), 77%; in data set [4] (time point 60 min), 51%; in data set [4] (time point 120 min), 31%.

One may read the IC50 as the point on the concentration scale where inhibition reaches its midpoint. A word on the Kd: it is the equilibrium constant for the complex coming apart. A higher Kd goes with weaker binding.
